The text below walks through data of PMC10669340, “Bioactive Compounds from an Endophytic Pezicula sp. Showing Antagonistic Effects against the Ash Dieback Pathogen” (Biomolecules, 2023).

Series [1] in a line: MTT cytotoxicity assay. The format is cell-based. The settings on record: read-out: Cytotoxic activity (IC50). The procedure: The in vitro cytotoxicity assay was performed using the MTT (3-(4,5-dimethylthiayol-2-yl)-2,5-diphenyltetrazolium bromide) test in 96-well microtiter plates as previously described.
For series [2], the system named is Bacillus subtilis DSM 10. Description: Antimicrobial serial dilution assay (MIC). Format: cell-based. The settings on record: Bacillus subtilis DSM 10, n.i.: no inhibition. The procedure: (§1) The antimicrobial activity (minimum inhibitory concentration, MIC) of the compounds was determined against Acinetobacter baumannii DSM 30008, Bacillus subtilis DSM 10, Chromobacterium violaceum DSM 30191, Escherichia coli DSM 1116, Mycobacterium smegmatis ATCC 700084, Pseudomonas aeruginosa PA14, Staphylococcus aureus DSM 346, Candida albicans DSM1665, Mucor hiemalis DSM 2656, Pichia anomala DSM 6766, Rhodotorula glutinis DSM 10134 and Schizosaccharomyces pombe DSM 70572 in a serial dilution assay as previously described.

The test system of series [3] is Chromobacterium violaceum DSM 30191. Briefly: Antimicrobial serial dilution assay (MIC). Format: cell-based. The procedure:
as §1

The subject of series [4] is Acinetobacter baumannii DSM 30008. Briefly: Antimicrobial serial dilution assay (MIC). The format is cell-based. The method, then: as §1
The subject of series [5] is Candida albicans DSM1665. Briefly: Antimicrobial serial dilution assay (MIC). Format: cell-based. The settings on record: n.i.: no inhibition. The method, then:
as §1

Series [6] deals with Escherichia coli DSM 1116. Description: Antimicrobial serial dilution assay (MIC). The format is cell-based. Particulars: n.i.: no inhibition. The procedure: as §1
Series [7] deals with Mucor hiemalis DSM 2656. Description: Antimicrobial serial dilution assay (MIC). The format is cell-based. The procedure: as §1
Series [8] relates to Mycobacterium smegmatis ATCC 700084. Briefly: Antimicrobial serial dilution assay (MIC). Format: cell-based. The settings on record: Mycobacterium smegmatis ATCC 700084; n.i.: no inhibition. The method, then:
as §1

Series [9] relates to Pichia anomala DSM 6766. Description: Antimicrobial serial dilution assay (MIC). Format: cell-based. The settings on record: Pichia anomala DSM 6766; n.i.: no inhibition. The method, then: as §1
Series [10] concerns Pseudomonas aeruginosa PA14. Briefly: Antimicrobial serial dilution assay (MIC). Format: cell-based. Particulars: n.i.: no inhibition. The method, then:
as §1

In series [11] the test system is Rhodotorula glutinis DSM 10134. Description: Antimicrobial serial dilution assay (MIC). The format is cell-based. Particulars: Rhodotorula glutinis DSM 10134; n.i.: no inhibition. The procedure:
as §1

The subject of series [12] is Schizosaccharomyces pombe DSM 70572. Briefly: Antimicrobial serial dilution assay (MIC). The format is cell-based. Particulars: Schizosaccharomyces pombe DSM 70572; n.i.: no inhibition. The method, then:
as §1

Series [13] has as its system Staphylococcus aureus DSM 346. Briefly: Antimicrobial serial dilution assay (MIC). The format is cell-based. Particulars: Staphylococcus aureus DSM 346; n.i.: no inhibition. The procedure:
as §1

The test system of series [14] is H. fraxineus (isolate RH02-T6-B4-2). Briefly: Agar disc diffusion assay. Format: cell-based, Hymenoscyphus fraxineus. The settings on record: 6 mm disc, 7 days, 21 °C. The method, then:
The antifungal activity of the isolated compounds against H. fraxineus was assessed by the disc diffusion method using 9 cm diameter petri dishes as previously described […] Three sterile filter paper discs per plate were gently placed on dried potato–dextrose agar. The fungicide nystatin was applied as the positive control (20 and 50 µg/paper disc) and methanol as the negative control (10 µL/paper disc). The test plates were incubated at 21 °C for 7 days, the inhibition diameters were measured, and the activity was evaluated compared to nystatin.
Figure S44: Agar disc (6 mm diam.) diffusion assay of compound CJ-17,572 (1) against H. fraxineus RH02-T6-B4-2, grown in 9-cm petri dishes on agar-based PD
medium with H. fraxineus, N - positive control nystatin, M - negative control methanol, CJ – 1.
Table S1. Antifungal activity of the compounds 1-6. n.i.: no inhibition, n.t.: not tested.
Compounds Amount ( µg/paper disc)
Peziculastatin n.t. n.i. 8 mm
Mycorrhizin A 19 mm 31 mm n.t.
Cryptosporioptide A n.t. n.i. n.i.
Cryptosporioptide B n.t. n.i. 8 mm
Cryptosporioptide C n.t. n.i. n.i.
Nystatin 21 mm 24 mm n.t.
(Agar diffusion results depend on both activity and mobility in agar.)

Series [15] has as its system Staphylococcus aureus DSM 1104 preformed biofilm. Briefly: Biofilm assay, dispersal of preformed biofilm. Format: cell-based. Also on record: Antibiofilm activity, preformed S. aureus: unit not given here. The settings on record: for Antibiofilm activity, preformed S. aureus: (/) no activity. The method, then:
Staphylococcus aureus DSM 1104 from −20 °C stock was cultured in 25 mL CASO (Casein–Peptone Soymeal–Peptone; peptone from casein 15 g/L, peptone from soy flour 5 g/L, NaCl 5 g/L, pH 7.3) medium at 37 °C at 100 rpm in 250 mL for 20 h. The precultured suspension of S. aureus was adjusted so that its OD600 matched the turbidity of a 0.001 McFarland standard. S. aureus was incubated in 96-well tissue microtiter plates (TPP tissue culture ref.no 92196, Switzerland) for 24 h at 150 rpm in […] CASO medium with 4% glucose broth. The supernatant was removed from the wells and 150 μL of the respective media (fresh) was added to the wells, together with the serially diluted compounds (250–2 μg/mL). The plates were incubated for a further 24 h at 37 °C. Staining of the biofilms was carried out as described previously. Standard deviation (SD) of two repeats with duplicates each were 10% or less. Methanol (2.5%) and microporenic acid A (250–2 μg/mL) were used as solvent and positive controls. Error bars indicate SD with duplicates in two biological repeats.

Series [16] deals with Candida albicans DSM 11225 biofilm. Briefly: Biofilm assay, inhibition of biofilm formation. The format is cell-based. More on the design: unit not given here. The settings on record: (/) no activity. The method, then:
The stock of fungal pathogen Candida albicans DSM 11225 from −20 °C was cultured in 25 mL YPD (Yeast extract Peptone Dextrose; dextrose 20 g/L, peptone 20 g/L, yeast extract 10 g/L) medium in a 250 mL flask at 30 °C with shaking 100 rpm for 18 h. Turbidity of the broth was measured and diluted to match the turbidity of a 0.05 McFarland standard in RPMI 1640 medium (Gibco, New York, NY, USA, Thermo Fisher Scientific). Afterwards, 150 μL of the fungal dispersion was added into each well of a 96-well microtiter plate (Falcon no. 351172, Thermo Fisher Scientific) and further incubated for 90 min. The supernatant was removed, and the plate was washed once by using PBS buffer. Compounds were serially diluted in 150 μL in fresh medium to concentrations of 250–2 μg/mL. Staining and analysis were conducted as previously described. Methanol (2.5%) and farnesol (250–2 μg/mL) were used as solvent and positive controls. Error bars indicate SD with duplicates in two biological repeats.

[17] abbreviates: 50 µg/paper disc, n.i.: no inhibition.

Values after ≈ are worked out from the molar mass of the structure shown. Like-named read-outs stand apart in the source and are kept apart here. Marks after values point to notes of the source that are not given here.

Broadly, the IC50 is the midpoint of a concentration-inhibition curve. Turning to `C/C(=C\c1csc(C)n1)[C@@H]1C[C@@H]2O[C@]2(C)CCC[C@H](C)[C@H](O)[C@@H](C)C(=O)C(C)(C)[C@@H](O)CC(=O)O1` [epothilone B, reference compound], the IC50 in series [1] (human, A431) is 0.065 nM; in [1] (human, A549) it was 0.053 nM; in series [1] (human, KB3.1, n.c.: no cytotoxicity), 0.045 nM; in series [1] (human, MCF-7), 0.083 nM; in series [1] (human, PC-3), 0.28 nM; in series [1] (human, SKOV-3), 0.18 nM. In addition, the IC50 in series [1] (mouse, L929, n.c.: no cytotoxicity) is 0.43 nM.

For the compound `CN(C)[C@@H]1C(O)=C(C(N)=O)C(=O)[C@@]2(O)C(O)=C3C(=O)c4c(O)cccc4[C@@](C)(O)[C@H]3[C@H](O)[C@@H]12` [oxytetracycline, reference compound], the MIC in [2] (DSM10, read-out: Minimum inhibitory concentration (MIC)) came to 16.6 µg/mL (≈ 36.1 µM); in series [3] (DSM30191, n.i.: no inhibition, read-out: Minimum inhibitory concentration (MIC)), 0.83 µg/mL (≈ 1.8 µM).

`CCC(C(=O)O)C(=O)OC1C2(C)Oc3ccc(-c4ccc5c(c4O)C(=O)C4=C(O)C6OC6(C)C(OC(=O)C(CC)C(=O)O)C4(C)O5)c(O)c3C(=O)C2=C(O)C2OC21C` (stereo not shown) [Compound 6, Cryptosporioptide C]: the “Minimum inhibitory concentration (MIC)” value in series [4] (n.i.: no inhibition), in series [2], in [5], in [3] (n.i.: no inhibition), in series [6] and in series [8] was “n.i” each time. Besides, the “Minimum inhibitory concentration (MIC)” value in series [9], in series [10], in [11], in series [12] and in series [13] was “n.i” in each case. Besides, the MIC in [7] (Mucor hiemalis, DSM2656, read-out: Minimum inhibitory concentration (MIC)) was 66.6 µg/mL (≈ 82.6 µM). Moreover, the “Antifungal activity, inhibition diameter” value in series [14] (setting [17]) is recorded as “n.i”; in series [14] (100 µg/paper disc, n.i.: no inhibition) it was “n.i”. Moreover, the “Antibiofilm activity, preformed S. aureus” value is recorded as 39 in series [15] (2 µg/mL); 49 in series [15] (3.9 µg/mL); 68 in [15] (7.8 µg/mL); 72 in series [15] (15.6 µg/mL); 78 in [15] (31.3 µg/mL); 78 in [15] (62.5 µg/mL). In addition, the results for the “Antibiofilm activity, preformed S. aureus” value in series [15] (125 µg/mL) and in series [15] (250 µg/mL) were 77 and 23, respectively. Moreover, the “efficacy of biofilm eradication, preformed biofilms of S. aureus” value in [15] (concentrations between 15.6 µg/mL–125 µg/mL) is listed as 70–80%. For the same compound, in series [15] (even up to 2 µg/mL), the “dispersal effects on preformed biofilms of S. aureus” value stood at 40%. The entries for the “Antibiofilm activity, C. albicans” value in series [16] (62.5 µg/mL), in series [16] (125 µg/mL) and in series [16] (250 µg/mL) were 40, 62 and 78, respectively.

As to `CC(C)=CCC/C(C)=C/CC/C(C)=C/CO` [Farnesol, farnesol, reference compound], the “Antibiofilm activity, C. albicans” value in series [16] (15.6 µg/mL) came to 55; in series [16] (31.3 µg/mL), 66; in series [16] (62.5 µg/mL) it was 71; in series [16] (250 µg/mL), 81.

In the case of `O=C(O)c1cn(C2CC2)c2cc(N3CCNCC3)c(F)cc2c1=O` [ciprofloxacin, reference compound], the MIC in [4] (DSM30008, n.i.: no inhibition, read-out: Minimum inhibitory concentration (MIC)) was found to be 0.26 µg/mL (≈ 0.785 µM).

As to `C[C@@H]1[C@H](O)[C@@H](C)/C=C/C=C/CC/C=C/C=C/C=C/C=C/C(O[C@H]2O[C@H](C)[C@@H](O)[C@H](N)[C@@H]2O)CC2O[C@](O)(CC(O)C(O)CCC(O)CC(O)CC(O)CC(=O)O[C@H]1C)CC(O)C2C(=O)O` (stereo partly shown) [nystatin, reference compound], the “Minimum inhibitory concentration (MIC)” value is reported as 16.6 ^e µg/mL in series [5]; 16.6 ^e µg/mL in series [7] (Mucor hiemalis DSM 2656, n.i.: no inhibition); 16.6 ^e µg/mL in [9]; 8.3 ^e µg/mL in [11]; 16.6 ^e µg/mL in series [12]. The “Antifungal activity, inhibition diameter” value in [14] (20 µg/paper disc) amounted to 21 mm; in series [14] (setting [17]), 24 mm.

With gentamycin [reference compound], the “Minimum inhibitory concentration (MIC)” value in series [6] is listed as 0.83 ^b µg/mL; in series [10] it was 0.21 ^b µg/mL; in [13] it was 0.21 ^b µg/mL.

Turning to `NC[C@H]1O[C@H](O[C@H]2[C@H](O)[C@@H](O[C@H]3O[C@H](CO)[C@@H](O)[C@H](N)[C@H]3O)[C@H](N)C[C@@H]2N)[C@H](O)[C@@H](O)[C@@H]1O` [kanamycin, reference compound], the “Minimum inhibitory concentration (MIC)” value in series [8] is 1.7 ^d µg/mL.
